Results: US4011313A, “Medicament preparations” (Syntex (U.S.A.) Inc., priority 1975, dated 1977)
Structures can show the parent of a compound that is named as a salt. Where two headings read alike, the source gives them in different places.

Assays:
[1] = Storage stability of tetracyclines in cream-like and comparison formulations; conditions: for oxytetracycline hydrochloride percent of initial activity: Example XXXIX cream; for tetracycline activity remaining: after two weeks, 20160 min; for tetracycline activity remaining / stability of comparison formulation: room temperature
[2] = Decomposition of aspirin vs. time at 80° C in vehicle, with extrapolated shelf-life; type: physicochemical; conditions: for shelf-life at 25° C: extrapolated from 80° C
Experimental: A formulation is prepared having 0.5 g. aspirin and 0.05% BHA per 1.0 g. polyethylene glycol-750-dimethyl ether, and stored at 80° C. Decomposition of the aspirin is measured vs. time. The time for 10% decomposition is 27 hours. This reflects approximately a 30 month shelf-life at 25° C. This can be compared to a published report[Jun et al., J. Pharm. Sec.
The time for 10% decomposition (t90) is 24 hours. This reflects approximately a 30 month shelf-life at 25° C. Thus, this Example describes the preparation of a liquid aspirin formulation which is stable for long periods of time at or about room temperature.
Sciences, 53, 815-818 (July, 1964).

[3] = in several polyethylene glycols, cited from earlier work
[4] = test system: lipase; test: In vitro lipase inhibition; type: biochemical
[5] = Oleic acid diethanolamide activity after storage at 80° C, with extrapolated shelf time; type: physicochemical
[6] = Chloramphenicol activity after storage at 80° C, with extrapolated shelf-life; conditions: for chloramphenicol percent of initial activity: 80° C
[7] = Nystatin activity after storage at 80° C; type: physicochemical; conditions: for nystatin percent of initial activity: 0.5 mg/ml in polyethylene glycol-350-dimethyl ether, 0.05% BHA, under air
Excerpt: Thus, the polyethylene glycol-350-dimethyl ether has a significant stabilizing effect on nystatin when compared to polyethylene glycol 400.

[8] = In vitro human skin penetration of labeled (H^3) tetracycline hydrochloride; conditions: cream-like preparation vs 0.5% in 75% propylene glycol and 0.05% in pH 6.6 buffer (both saturated solutions)
[9] = Palmitic acid diethanolamide stability at 80° C; type: physicochemical; conditions: under air, 14 days
Excerpt: The formulation remains undecomposed after 14 days. The same result is attained with a formulation which additionally contains 0.05% BHA.

[10] = PGE2 activity after storage at 80° C in polyethylene glycol-550-dimethyl ether; type: physicochemical; conditions: 1 mg PGE2, 0.01% edetic acid, 0.01% BHA, 0.01% BHT per ml polyethylene glycol-550-dimethyl ether, nitrogen, 18 days
Experimental: The following formulations are prepared having 1 mg. PGE2 per ml. of polyethylene glycol-550-dimethyl ether, and the additional material(s) as set forth below.
A formulation is prepared having 1 mg. PGE2 , 0.01% edetic acid, 0.01% BHA and 0.01% BHT per ml. polyethylene glycol-550-dimethyl ether, and sealed in an ampule under nitrogen atmosphere.

[11] = PGE2 activity after storage in polyethylene glycol comparison formulations; type: physicochemical
Experimental: By comparison, 1 mg. PGE2 and 1 ml. polyethylene glycol 400 assays 54% PGE2 activity after storage for two months at 45° C.; 0.2 mg. PGE2 in 2.7598 g. polyethylene glycol 4,000 assays 70% PGE2 activity after storage for 6 months at room temperature and 72% PGE2 activity after storage for 3 months at 45° C.; a suppository of 0.2 mg. PGE2 in 2.7298 g. base comprising 2% polyethylene glycol 4,000 and 98% polyethylene glycol 1,000 assays 62% PGE2 activity after storage for six months at room temperature; a formulation of PGE2 in polyethylene glycol 400 assays 73% PGE2 activity after 4 months at room temperature; and a formulation of PGE2 in polyethylene glycol 4000 assays 82% PGE2 activity after 5 months at room temperature.

[12] = literature: Brummer 1971; Karim et al. 1968; cited from earlier work
[13] = General chemical stability of prostaglandins; type: physicochemical; conditions: with dimethyl ether of polyethylene glycol 550, extended period above room temperature
Excerpt: See, for example, Brummer J. Pharm. Pharmac. 23, 804 (1971), and Karim et al., European J. Pharmacol. 4, 416 (1968). It would, therefore, be desirable to have a prostaglandin preparation wherein the prostaglandin material is stabilized by the vehicle material.
The above and still further objects, features, and advantages of the present invention are achieved, in accordance therewith, by admixing a pharmaceutically active quantity of an active medicament material with a dialkylated mono- or poly-alkylene glycol optionally including an antioxidant for the glycol vehicle.

[14] = PGE2 activity after storage at 60° C in glyme or triethylene glycol-dimethyl ether; type: physicochemical; conditions: nitrogen
Experimental: A formulation is prepared having 1 mg. PGE2 per ml. 1,2-dimethoxyethane. After 12 days storage at 60° C. under a nitrogen atmosphere, the PGE2 assays 100% of its initial activity.
A formulation is prepared having 1 mg. PGE2 per ml. of triethylene glycol-dimethyl ether. After 5 days storage at 60° C. under a nitrogen atmosphere, the PGE2 assays 100% of its initial activity.

[15] = polyethylene glycol 400 in place of dialkylated vehicle, 2 days
[16] = 0.05% tetracycline hydrochloride in pH 6.6 buffer
[17] = 0.5% tetracycline hydrochloride in 75% propylene glycol

CN(C)C1C(=O)C(C(N)=O)=C(O)C2(O)C(=O)C3=C(O)c4c(O)cccc4C(C)(O)C3C(O)C12 (stereo not drawn) [oxytetracycline hydrochloride]
oxytetracycline hydrochloride percent of initial activity ([1]; 2 months, 45° C, 86400 min): 92%
oxytetracycline hydrochloride percent of initial activity ([1]; 3 months, 37° C, 129600 min): 92%
oxytetracycline hydrochloride percent of initial activity ([1]; 4 months, 45° C, 172800 min): 75%

CC(=O)Oc1ccccc1C(=O)O [aspirin, acetylsalicylic acid]
time for 10% decomposition (t90) ([2]; 100 mg aspirin per ml polyethylene glycol-350-dimethyl ether, under air, 80° C): 24 h
time for 10% decomposition ([2]; 0.5 g aspirin and 0.05% BHA per 1.0 g polyethylene glycol-750-dimethyl ether, 80° C): 27 h
shelf-life at 25° C ([2]; polyethylene glycol-350-dimethyl ether, under air): ~30 month
shelf-life at 25° C ([2]; polyethylene glycol-750-dimethyl ether with 0.05% BHA): ~30 month
time for 10% decomposition ([3]; 80° C, Jun et al. 1972): 2 h
shelf-life at 25° C ([3]; from published report Jun et al. 1972): 3.5 months

CCCCCCCC/C=C\CCCCCCCC(=O)N(CCO)CCO [oleic acid diethanolamide]
lipase inhibition [4]: inhibits lipase
oleamide percent of initial activity ([5]; 2 mg/ml in 1,2-dimethoxyethane with 0.025% BHT and 0.025% BHA, 5 weeks, 80° C, 50400 min): 96%
shelf time at 25° C ([5]; approximately, 1,2-dimethoxyethane with BHT and BHA, extrapolated from 80° C): 3-4 years

O=C(N[C@H](CO)[C@H](O)c1ccc([N+](=O)[O-])cc1)C(Cl)Cl [chloramphenicol]
chloramphenicol percent of initial activity ([6]; 0.5 mg/ml in polyethylene glycol-350-dimethyl ether, 0.05% BHA, under air, 2 days): 95%
chloramphenicol percent of initial activity ([6]; 0.5 mg/ml in polyethylene glycol-350-dimethyl ether, 0.05% BHA, under air, 5 days): 66%
chloramphenicol percent of initial activity [6, 15]: 50%
chloramphenicol percent of initial activity ([6]; polyethylene glycol 400 in place of dialkylated vehicle, 5 days): less than 20%
shelf-life at room temperature ([6]; polyethylene glycol-350-dimethyl ether, 0.05% BHA, extrapolated from 80° C): at least 1 year

C[C@@H]1[C@H](O)[C@@H](C)/C=C/C=C/CC/C=C/C=C/C=C/C=C/C(O[C@H]2O[C@H](C)[C@@H](O)[C@H](N)[C@@H]2O)CC2O[C@](O)(CC(O)C(O)CCC(O)CC(O)CC(O)CC(=O)O[C@H]1C)CC(O)C2C(=O)O (stereo partly drawn) [nystatin]
nystatin percent of initial activity ([7]; 2 days): 56%
nystatin percent of initial activity ([7]; 5 days): less than 40%
decomposition (loss of activity) [7, 15]: total decomposition

CN(C)C1C(=O)C(C(N)=O)=C(O)C2(O)C(=O)C3=C(O)c4c(O)cccc4C(C)(O)C3CC12 (stereo not drawn) [tetracycline hydrochloride]
tetracycline activity remaining [1, 16]: less than 50%
stability of comparison formulation [1, 16]: highly unstable
tetracycline activity remaining [1, 17]: less than 50%
stability of comparison formulation [1, 17]: highly unstable
tetracycline hydrochloride percent of initial activity ([1]; Example XXXVIII cream: 1.0% drug, 79.0% polyethylene glycol-350-dimethyl ether, 20.0% polyethylene glycol-6000-dimethyl ether, 0.05% BHA, 4 months, 45° C, 175200 min): 98%
skin penetration [8]: equivalent skin penetration

CCCCCCCCCCCCCCCC(=O)N(CCO)CCO [palmitic acid diethanolamide]
decomposition after storage ([9]; 5 mg/ml in polyethylene glycol-350-dimethyl ether with 0.05% BHA): undecomposed
decomposition after storage ([9]; 5 mg/ml in polyethylene glycol-350-dimethyl ether): undecomposed

CCCCC[C@H](O)/C=C/[C@H]1[C@H](O)CC(=O)[C@@H]1C/C=C\CCCC(=O)O [PGE2, 11α,15α-dihydroxy-9-keto-5,13-prostadienoic acid]
PGE2 percent of initial activity [10]: 100%
PGE2 activity after storage ([11]; 0.2 mg PGE2 in 2.7598 g polyethylene glycol 4,000, 3 months, 45° C, 129600 min): 72%
PGE2 activity after storage ([11]; 0.2 mg PGE2 in 2.7598 g polyethylene glycol 4,000, 6 months, room temperature, 259200 min): 70%
PGE2 activity after storage ([11]; 1 mg PGE2 and 1 ml polyethylene glycol 400, two months, 45° C, 86400 min): 54%
PGE2 activity after storage ([11]; in polyethylene glycol 400, 4 months, room temperature, 172800 min): 73%
PGE2 activity after storage ([11]; in polyethylene glycol 4000, 5 months, room temperature, 216000 min): 82%
PGE2 activity after storage ([11]; suppository, 0.2 mg PGE2 in 2.7298 g base (2% polyethylene glycol 4,000, 98% polyethylene glycol 1,000), six months, room temperature, 259200 min): 62%
chemical stability [12]: relatively unstable
chemical stability after storage [13]: high degree of chemical stability
PGE2 percent of initial activity ([14]; 1 mg/ml in 1,2-dimethoxyethane, 12 days): 100%
PGE2 percent of initial activity ([14]; 1 mg/ml in triethylene glycol-dimethyl ether, 5 days): 100%
